Data: publication PMC8080530, “Glucocorticoid receptor Thr524 phosphorylation by MINK1 induces interactions with 14-3-3 protein regulators” (The Journal of Biological Chemistry, 2021)
Non-standard residues stand in square brackets, D forms with d. Residues, ends and D or L forms follow the SMILES beside them. *: point of attachment. 6FAM = O=C1OC2(c3ccc(O)cc3Oc3cc(O)ccc32)c2cc(C(=O)*)ccc21; pT = C[C@@H](OP(=O)(O)O)[C@H](N)C(=O)O; pS = N[C@@H](COP(=O)(O)O)C(=O)O

These compounds were tested against T1, 14-3-3ζ (Homo sapiens, UniProt P63104) (assay: FP assay with GR phosphorylated peptides and 14-3-3ζ). Details: FITC-labeled peptide 60 nM (monophosphorylated) or 10 nM (doubly phosphorylated) titrated with 14-3-3ζ, 30 min RT, Hill fit, triplicates; read-out: Kd with 14-3-3ζ by FP.
T1 construct: Full-length expression and purification of 14-3-3; made in house; host or cells: E. coli BL21 (DE3)STAR
T1 sequence (P63104 1-245): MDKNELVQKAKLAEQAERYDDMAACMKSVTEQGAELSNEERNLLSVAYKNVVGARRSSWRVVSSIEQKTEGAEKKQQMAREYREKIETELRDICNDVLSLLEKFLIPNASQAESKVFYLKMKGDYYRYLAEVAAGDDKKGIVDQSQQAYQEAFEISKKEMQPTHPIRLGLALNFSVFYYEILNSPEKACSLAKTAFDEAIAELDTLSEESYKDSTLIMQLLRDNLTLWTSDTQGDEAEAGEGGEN
Format: binding
Experimental: After 30-min incubation at RT, the plates were read on a plate reader PHERAstar (BMG LABTECH GmbH) for FP signal using […] and standard excitation (485 nm) and emission (520 nm). Measurements were performed as triplicates. Binding data were fit to a standard Hill equation using the software Genedata Screener. The figures were made using the software GraphPad Prism 8. FP data were expressed as millipolarization (mP) units, and the dynamic range (ΔmP) was the difference of the signals from the bound peptide and free peptide. Errors are the standard error of the fit.

`CC(C)C[C@H](N)C(=O)N[C@@H](CCC(=O)O)C(=O)N[C@@H](Cc1ccccc1)C(=O)N[C@@H](CO)C(=O)N[C@@H](CO)C(=O)NCC(=O)N[C@@H](COP(=O)(O)O)C(=O)N1CCC[C@H]1C(=O)NCC(=O)N[C@@H](CCCCN)C(=O)N[C@@H](CCC(=O)O)C(=O)N[C@H](C(=O)N[C@@H](CC(N)=O)C(=O)O)[C@@H](C)O` [GR_pS203] (H-LEFSSG[pS]PGKETN-OH; N-terminus assumed) and `CC(C)C[C@H](NC(=O)[C@H](CC(=O)O)NC(=O)[C@H](CO)NC(=O)[C@H](CCCNC(=N)N)NC(=O)[C@H](Cc1c[nH]c2ccccc12)NC(=O)[C@@H]1CCCN1C(=O)[C@H](COP(=O)(O)O)NC(=O)[C@H](CCC(=O)O)NC(=O)[C@H](CC(N)=O)NC(=O)[C@@H](NC(=O)[C@H](CCC(=O)O)NC(=O)[C@H](CCCCN)NC(=O)CN)[C@@H](C)O)C(=O)O` [GR_pS211] (H-GKETNE[pS]PWRSDL-OH; N-terminus assumed) cannot be ordered by Kd: greater than 150000 nM for the first, greater than 150000 nM for the second.

Compared with `CC[C@H](C)[C@H](NC(=O)[C@@H](NC(=O)[C@H](CCCCN)NC(=O)CNC(=O)CNC(=O)CNC(=O)CNC(=O)CNC(=O)[C@H](CCCCN)NC(=O)[C@@H]1CCCN1C(=O)[C@H](CC(N)=O)NC(=O)[C@H](CCC(=O)O)NC(=O)[C@@H]1CCCN1C(=O)[C@@H](NC(=O)[C@H](COP(=O)(O)O)NC(=O)[C@@H](NC(=O)[C@H](CO)NC(=O)[C@H](CCCNC(=N)N)NC(=O)[C@H](CC(N)=O)NC(=O)[C@H](CC(C)C)NC(=O)[C@H](CC(N)=O)NC(=O)c1ccc2c(c1)C1(OC2=O)c2ccc(O)cc2Oc2cc(O)ccc21)[C@@H](C)O)C(C)C)[C@@H](C)O)C(=O)N[C@H](C(=O)N1CCC[C@H]1C(=O)N[C@@H](C)C(=O)N[C@H](C(=O)N[C@@H](CC(C)C)C(=O)N1CCC[C@H]1C(=O)N[C@@H](CCC(N)=O)C(=O)N[C@@H](CC(C)C)C(=O)N[C@H](C(=O)N1CCC[C@H]1C(=O)O)[C@@H](C)O)[C@@H](C)OP(=O)(O)O)C(C)C` [GR_pS134-pT524] (6FAM-NLNRST[pS]VPENPKGGGGGKTIVPA[pT]LPQLTP-OH; C-terminus assumed), `CC(C)C[C@H](NC(=O)[C@H](CO)NC(=O)[C@H](CCC(=O)O)NC(=O)[C@H](CCCCN)NC(=O)[C@H](CO)NC(=O)[C@@H](N)CC(=O)O)C(=O)N[C@H](C(=O)N1CCC[C@H]1C(=O)NCC(=O)N[C@@H](CCCNC(=N)N)C(=O)N[C@@H](CCC(=O)O)C(=O)N[C@@H](CCC(=O)O)C(=O)N[C@@H](CC(N)=O)C(=O)O)[C@@H](C)OP(=O)(O)O` [GR_pT8] (H-DSKESL[pT]PGREEN-OH; N-terminus assumed) is higher in Kd: 550 nM for the first, greater than 150000 nM for the second. The first binds more tightly here.

`CC(C)C[C@H](NC(=O)[C@H](CO)NC(=O)[C@@H]1CCCN1C(=O)[C@H](COP(=O)(O)O)NC(=O)[C@H](CO)NC(=O)[C@H](C)NC(=O)[C@H](CO)NC(=O)[C@@H](NC(=O)[C@H](CCCCN)NC(=O)[C@@H](N)C(C)C)C(C)C)C(=O)N[C@@H](C)C(=O)N[C@H](C(=O)N[C@@H](C)C(=O)O)C(C)C` [GR_pS45] (H-VKVSAS[pS]PSLAVA-OH; N-terminus assumed) and `CC(C)C[C@H](NC(=O)[C@H](CS)NC(=O)[C@H](CC(N)=O)NC(=O)[C@H](CCC(=O)O)NC(=O)[C@@H](N)CC(=O)O)C(=O)N[C@@H](CC(C)C)C(=O)N[C@@H](COP(=O)(O)O)C(=O)N1CCC[C@H]1C(=O)N[C@@H](CC(C)C)C(=O)N[C@@H](C)C(=O)NCC(=O)N[C@@H](CCC(=O)O)C(=O)N[C@@H](CC(=O)O)C(=O)O` [GR_pS226] (H-DENCLL[pS]PLAGED-OH; N-terminus assumed) cannot be ordered by Kd: greater than 150000 nM for the first, greater than 150000 nM for the second.

Same assay, conditions: FP, doubly phosphorylated 31-mer peptides, triplicates; read-out: Kd with 14-3-3ζ (values in nM)

In the case of `CC[C@H](C)[C@H](NC(=O)[C@@H](NC(=O)[C@H](C)N)[C@@H](C)O)C(=O)N[C@H](C(=O)N1CCC[C@H]1C(=O)N[C@@H](C)C(=O)N[C@H](C(=O)N[C@@H](CC(C)C)C(=O)N1CCC[C@H]1C(=O)N[C@@H](CCC(N)=O)C(=O)N[C@@H](CC(C)C)C(=O)N[C@H](C(=O)N1CCC[C@H]1C(=O)NCC(=O)NCC(=O)NCC(=O)NCC(=O)NCC(=O)N[C@@H](CCCNC(=N)N)C(=O)N[C@@H](CO)C(=O)N[C@@H](Cc1ccc(O)cc1)C(=O)N[C@@H](CCCNC(=N)N)C(=O)N[C@@H](CCC(N)=O)C(=O)N[C@@H](CO)C(=O)N[C@@H](COP(=O)(O)O)C(=O)N[C@@H](C)C(=O)N[C@@H](CC(N)=O)C(=O)N[C@@H](CC(C)C)C(=O)N[C@@H](CC(C)C)C(=O)N[C@@H](CS)C(=O)N[C@@H](Cc1ccccc1)C(=O)O)[C@@H](C)O)[C@@H](C)OP(=O)(O)O)C(C)C` [GR_K518A] (H-ATIVPA[pT]LPQLTPGGGGGRSYRQS[pS]ANLLCF-OH), the Kd is reported as 110 nM.

Same assay, conditions: method not given; read-out: Kd with 14-3-3ζ

For `CC[C@H](C)[C@H](NC(=O)[C@H](CCCNC(=N)N)NC(=O)[C@H](Cc1c[nH]c2ccccc12)NC(=O)[C@@H](N)[C@@H](C)O)C(=O)N[C@@H](CCSC)C(=O)N[C@H](C(=O)N[C@H](C(=O)N[C@@H](CC(C)C)C(=O)N[C@@H](CC(N)=O)C(=O)N[C@@H](CCSC)C(=O)N[C@@H](CC(C)C)C(=O)NCC(=O)NCC(=O)O)[C@@H](C)OP(=O)(O)O)[C@@H](C)O` [GR_pT562], the Kd was 200000 nM.

Same assay, conditions: read-out: PKd with 14-3-3ζ (converted)

`CC[C@H](C)[C@H](NC(=O)[C@@H](NC(=O)[C@@H](N)CCCCN)[C@@H](C)O)C(=O)N[C@H](C(=O)N1CCC[C@H]1C(=O)N[C@@H](C)C(=O)N[C@H](C(=O)N[C@@H](CC(C)C)C(=O)N1CCC[C@H]1C(=O)N[C@@H](CCC(N)=O)C(=O)N[C@@H](CC(C)C)C(=O)N[C@H](C(=O)N1CCC[C@H]1C(=O)NCC(=O)NCC(=O)NCC(=O)NCC(=O)NCC(=O)N[C@@H](C)C(=O)N[C@@H](CO)C(=O)N[C@@H](Cc1ccc(O)cc1)C(=O)N[C@@H](CCCNC(=N)N)C(=O)N[C@@H](CCC(N)=O)C(=O)N[C@@H](CO)C(=O)N[C@@H](COP(=O)(O)O)C(=O)N[C@@H](C)C(=O)N[C@@H](CC(N)=O)C(=O)N[C@@H](CC(C)C)C(=O)N[C@@H](CC(C)C)C(=O)N[C@@H](CS)C(=O)N[C@@H](Cc1ccccc1)C(=O)O)[C@@H](C)O)[C@@H](C)OP(=O)(O)O)C(C)C` [GR_R611A] (H-KTIVPA[pT]LPQLTPGGGGGASYRQS[pS]ANLLCF-OH) and `CC[C@H](C)[C@H](NC(=O)[C@@H](NC(=O)[C@@H](N)CCCCN)[C@@H](C)O)C(=O)N[C@H](C(=O)N1CCC[C@H]1C(=O)N[C@@H](C)C(=O)N[C@H](C(=O)N[C@@H](CC(C)C)C(=O)N1CCC[C@H]1C(=O)N[C@@H](CCC(N)=O)C(=O)N[C@@H](C)C(=O)N[C@H](C(=O)N1CCC[C@H]1C(=O)NCC(=O)NCC(=O)NCC(=O)NCC(=O)NCC(=O)N[C@@H](CCCNC(=N)N)C(=O)N[C@@H](CO)C(=O)N[C@@H](Cc1ccc(O)cc1)C(=O)N[C@@H](CCCNC(=N)N)C(=O)N[C@@H](CCC(N)=O)C(=O)N[C@@H](CO)C(=O)N[C@@H](COP(=O)(O)O)C(=O)N[C@@H](C)C(=O)N[C@@H](CC(N)=O)C(=O)N[C@@H](CC(C)C)C(=O)N[C@@H](CC(C)C)C(=O)N[C@@H](CS)C(=O)N[C@@H](Cc1ccccc1)C(=O)O)[C@@H](C)O)[C@@H](C)OP(=O)(O)O)C(C)C` [GR_L528A] (H-KTIVPA[pT]LPQATPGGGGGRSYRQS[pS]ANLLCF-OH) are the same in Kd: 50.1 nM for the first, 50.1 nM for the second.

`CC[C@H](C)[C@H](NC(=O)[C@@H](NC(=O)[C@@H](N)CCCCN)[C@@H](C)O)C(=O)N[C@H](C(=O)N1CCC[C@H]1C(=O)N[C@@H](C)C(=O)N[C@H](C(=O)N[C@@H](C)C(=O)N1CCC[C@H]1C(=O)N[C@@H](CCC(N)=O)C(=O)N[C@@H](CC(C)C)C(=O)N[C@H](C(=O)N1CCC[C@H]1C(=O)NCC(=O)NCC(=O)NCC(=O)NCC(=O)NCC(=O)N[C@@H](CCCNC(=N)N)C(=O)N[C@@H](CO)C(=O)N[C@@H](Cc1ccc(O)cc1)C(=O)N[C@@H](CCCNC(=N)N)C(=O)N[C@@H](CCC(N)=O)C(=O)N[C@@H](CO)C(=O)N[C@@H](COP(=O)(O)O)C(=O)N[C@@H](C)C(=O)N[C@@H](CC(N)=O)C(=O)N[C@@H](CC(C)C)C(=O)N[C@@H](CC(C)C)C(=O)N[C@@H](CS)C(=O)N[C@@H](Cc1ccccc1)C(=O)O)[C@@H](C)O)[C@@H](C)OP(=O)(O)O)C(C)C` [GR_L525A] (H-KTIVPA[pT]APQLTPGGGGGRSYRQS[pS]ANLLCF-OH) and `CC[C@H](C)[C@H](NC(=O)[C@@H](NC(=O)[C@@H](N)CCCCN)[C@@H](C)O)C(=O)N[C@H](C(=O)N1CCC[C@H]1C(=O)N[C@@H](C)C(=O)N[C@H](C(=O)N[C@@H](CC(C)C)C(=O)N1CCC[C@H]1C(=O)N[C@@H](CCC(N)=O)C(=O)N[C@@H](CC(C)C)C(=O)N[C@H](C(=O)N1CCC[C@H]1C(=O)NCC(=O)NCC(=O)NCC(=O)NCC(=O)NCC(=O)N[C@@H](CCCNC(=N)N)C(=O)N[C@@H](CO)C(=O)N[C@@H](Cc1ccc(O)cc1)C(=O)N[C@@H](CCCNC(=N)N)C(=O)N[C@@H](CCC(N)=O)C(=O)N[C@@H](CO)C(=O)N[C@@H](COP(=O)(O)O)C(=O)N[C@@H](C)C(=O)N[C@@H](CC(N)=O)C(=O)N[C@@H](CC(C)C)C(=O)N[C@@H](CC(C)C)C(=O)N[C@@H](CS)C(=O)N[C@@H](C)C(=O)O)[C@@H](C)O)[C@@H](C)OP(=O)(O)O)C(C)C` [GR_F623A] (H-KTIVPA[pT]LPQLTPGGGGGRSYRQS[pS]ANLLCA-OH) are within 1.5-fold of each other in Kd: 63.1 nM for the first, 50.1 nM for the second.
